What all share (test): Dundee kinase panel
What all share (format): biochemical
Settings in all cases: for remaining activity at 1 µM: read-out: residual activity

The target of one assay is T1, Aurora A (Homo sapiens, UniProt O14965).
T1 construct: lines 1-140) and Reaction Biology
T1 sequence (O14965 1-403): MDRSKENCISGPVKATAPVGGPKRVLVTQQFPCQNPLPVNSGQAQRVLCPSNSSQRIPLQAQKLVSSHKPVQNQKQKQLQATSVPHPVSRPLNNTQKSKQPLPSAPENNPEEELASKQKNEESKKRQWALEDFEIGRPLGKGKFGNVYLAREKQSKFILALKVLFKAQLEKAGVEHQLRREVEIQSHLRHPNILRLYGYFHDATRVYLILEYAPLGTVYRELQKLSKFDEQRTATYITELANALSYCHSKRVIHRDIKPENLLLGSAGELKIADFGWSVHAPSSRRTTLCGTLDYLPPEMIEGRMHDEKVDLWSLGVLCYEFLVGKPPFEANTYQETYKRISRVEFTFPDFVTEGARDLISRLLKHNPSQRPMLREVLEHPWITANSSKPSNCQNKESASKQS
The method, then:
(§1) Compounds were screened at 1 μM. For key hits, pIC50 values were then determined by HTRF as above. […] Stability in mouse and human liver microsomes was determined by Cyprotex.

The next assay addresses T2, BRSK1 (Homo sapiens, UniProt Q8TDC3).
T2 construct: lines 1-140) and Reaction Biology
T2 sequence (Q8TDC3 1-778): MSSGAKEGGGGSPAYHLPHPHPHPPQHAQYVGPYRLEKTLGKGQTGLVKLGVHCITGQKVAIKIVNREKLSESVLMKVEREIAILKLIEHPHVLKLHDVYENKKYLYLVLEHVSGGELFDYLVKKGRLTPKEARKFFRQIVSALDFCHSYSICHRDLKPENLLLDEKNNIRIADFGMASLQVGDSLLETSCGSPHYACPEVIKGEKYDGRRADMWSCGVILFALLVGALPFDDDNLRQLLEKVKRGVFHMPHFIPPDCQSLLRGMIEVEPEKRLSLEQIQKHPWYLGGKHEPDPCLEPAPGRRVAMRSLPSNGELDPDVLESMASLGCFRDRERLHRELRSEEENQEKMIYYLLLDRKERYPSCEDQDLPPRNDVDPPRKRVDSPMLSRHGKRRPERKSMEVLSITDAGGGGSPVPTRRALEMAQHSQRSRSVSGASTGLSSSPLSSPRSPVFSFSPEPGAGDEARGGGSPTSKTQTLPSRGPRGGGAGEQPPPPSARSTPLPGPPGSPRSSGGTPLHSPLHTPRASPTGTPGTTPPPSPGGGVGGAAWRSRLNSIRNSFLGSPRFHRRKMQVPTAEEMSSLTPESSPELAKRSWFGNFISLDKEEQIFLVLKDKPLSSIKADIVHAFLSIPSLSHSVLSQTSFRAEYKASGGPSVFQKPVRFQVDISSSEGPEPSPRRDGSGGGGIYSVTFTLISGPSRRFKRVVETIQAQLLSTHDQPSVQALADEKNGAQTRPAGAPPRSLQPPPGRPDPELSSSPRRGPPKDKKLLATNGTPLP
The procedure:
as §1

The next assay deals with T3, BTK (Homo sapiens, UniProt Q06187).
T3 construct: lines 1-140) and Reaction Biology
The procedure:
as §1

The target in another assay is T4, DYRK2 (Homo sapiens, UniProt Q92630).
T4 construct: lines 1-140) and Reaction Biology
T4 sequence (Q92630 1-601): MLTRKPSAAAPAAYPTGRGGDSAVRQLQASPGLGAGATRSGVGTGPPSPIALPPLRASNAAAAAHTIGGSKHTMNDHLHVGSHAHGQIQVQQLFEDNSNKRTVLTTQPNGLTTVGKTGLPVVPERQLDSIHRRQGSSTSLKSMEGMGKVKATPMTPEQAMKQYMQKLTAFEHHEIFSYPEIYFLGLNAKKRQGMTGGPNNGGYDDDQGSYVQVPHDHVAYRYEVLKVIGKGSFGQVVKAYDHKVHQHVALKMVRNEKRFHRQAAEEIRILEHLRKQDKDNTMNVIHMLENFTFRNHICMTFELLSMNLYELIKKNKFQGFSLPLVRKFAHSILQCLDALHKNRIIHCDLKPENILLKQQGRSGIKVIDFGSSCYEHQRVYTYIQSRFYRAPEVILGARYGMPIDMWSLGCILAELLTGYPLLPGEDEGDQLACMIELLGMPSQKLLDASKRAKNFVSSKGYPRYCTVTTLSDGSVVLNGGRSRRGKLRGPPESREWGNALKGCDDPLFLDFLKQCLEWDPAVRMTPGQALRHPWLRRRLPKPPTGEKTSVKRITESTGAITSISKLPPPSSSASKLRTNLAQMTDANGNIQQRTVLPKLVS
The procedure: as §1

The target of the next assay is T5, EPH-A2 (Homo sapiens, UniProt P29317).
T5 construct: lines 1-140) and Reaction Biology
The procedure:
as §1

In a further assay the target is T6, HIPK2 (Homo sapiens, UniProt Q9H2X6).
T6 construct: lines 1-140) and Reaction Biology
The procedure:
as §1

The next assay addresses T7, JAK2 (Homo sapiens, UniProt O60674).
T7 construct: lines 1-140) and Reaction Biology
The method, then: as §1

The target in the next assay is T8, PAK5 (Homo sapiens, UniProt Q9P286).
T8 construct: lines 1-140) and Reaction Biology
The procedure:
as §1

The next assay has as its target T9, PIM2 (Homo sapiens, UniProt Q9P1W9).
T9 construct: lines 1-140) and Reaction Biology
The procedure: as §1

The next assay deals with T10, PKCa (Homo sapiens, UniProt P17252).
T10 construct: lines 1-140) and Reaction Biology
The method, then: as §1

The next assay concerns the target T11, TRKA (Homo sapiens, UniProt P04629).
T11 construct: lines 1-140) and Reaction Biology
The procedure:
as §1

In the next assay the target is T12, TTBK1 (Homo sapiens, UniProt Q5TCY1).
T12 construct: lines 1-140) and Reaction Biology
The procedure:
as §1

The target in the next assay is T13, p38g MAPK (Homo sapiens, UniProt P53778).
T13 construct: lines 1-140) and Reaction Biology
T13 sequence (P53778 1-367): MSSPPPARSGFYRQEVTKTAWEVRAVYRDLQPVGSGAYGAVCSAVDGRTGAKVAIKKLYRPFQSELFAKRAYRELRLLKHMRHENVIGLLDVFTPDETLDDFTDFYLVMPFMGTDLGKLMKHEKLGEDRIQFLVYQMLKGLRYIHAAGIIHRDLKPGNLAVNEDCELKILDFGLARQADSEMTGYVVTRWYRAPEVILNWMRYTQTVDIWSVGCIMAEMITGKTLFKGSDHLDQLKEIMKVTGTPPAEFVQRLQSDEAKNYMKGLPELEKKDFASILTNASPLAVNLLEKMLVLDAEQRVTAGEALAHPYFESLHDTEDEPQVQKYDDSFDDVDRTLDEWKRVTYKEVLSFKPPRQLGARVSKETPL
The method, then:
as §1

T9 sequence (Q9P1W9 whole entry): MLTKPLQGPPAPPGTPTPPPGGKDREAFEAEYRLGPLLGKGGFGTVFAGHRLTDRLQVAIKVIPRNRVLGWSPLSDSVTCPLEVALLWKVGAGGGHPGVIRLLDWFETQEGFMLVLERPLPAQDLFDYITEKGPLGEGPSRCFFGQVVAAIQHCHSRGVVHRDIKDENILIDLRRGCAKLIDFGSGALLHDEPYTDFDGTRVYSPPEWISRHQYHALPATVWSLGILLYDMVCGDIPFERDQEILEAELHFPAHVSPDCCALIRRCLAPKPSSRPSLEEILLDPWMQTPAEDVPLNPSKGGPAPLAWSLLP
T7 sequence (O60674 whole entry): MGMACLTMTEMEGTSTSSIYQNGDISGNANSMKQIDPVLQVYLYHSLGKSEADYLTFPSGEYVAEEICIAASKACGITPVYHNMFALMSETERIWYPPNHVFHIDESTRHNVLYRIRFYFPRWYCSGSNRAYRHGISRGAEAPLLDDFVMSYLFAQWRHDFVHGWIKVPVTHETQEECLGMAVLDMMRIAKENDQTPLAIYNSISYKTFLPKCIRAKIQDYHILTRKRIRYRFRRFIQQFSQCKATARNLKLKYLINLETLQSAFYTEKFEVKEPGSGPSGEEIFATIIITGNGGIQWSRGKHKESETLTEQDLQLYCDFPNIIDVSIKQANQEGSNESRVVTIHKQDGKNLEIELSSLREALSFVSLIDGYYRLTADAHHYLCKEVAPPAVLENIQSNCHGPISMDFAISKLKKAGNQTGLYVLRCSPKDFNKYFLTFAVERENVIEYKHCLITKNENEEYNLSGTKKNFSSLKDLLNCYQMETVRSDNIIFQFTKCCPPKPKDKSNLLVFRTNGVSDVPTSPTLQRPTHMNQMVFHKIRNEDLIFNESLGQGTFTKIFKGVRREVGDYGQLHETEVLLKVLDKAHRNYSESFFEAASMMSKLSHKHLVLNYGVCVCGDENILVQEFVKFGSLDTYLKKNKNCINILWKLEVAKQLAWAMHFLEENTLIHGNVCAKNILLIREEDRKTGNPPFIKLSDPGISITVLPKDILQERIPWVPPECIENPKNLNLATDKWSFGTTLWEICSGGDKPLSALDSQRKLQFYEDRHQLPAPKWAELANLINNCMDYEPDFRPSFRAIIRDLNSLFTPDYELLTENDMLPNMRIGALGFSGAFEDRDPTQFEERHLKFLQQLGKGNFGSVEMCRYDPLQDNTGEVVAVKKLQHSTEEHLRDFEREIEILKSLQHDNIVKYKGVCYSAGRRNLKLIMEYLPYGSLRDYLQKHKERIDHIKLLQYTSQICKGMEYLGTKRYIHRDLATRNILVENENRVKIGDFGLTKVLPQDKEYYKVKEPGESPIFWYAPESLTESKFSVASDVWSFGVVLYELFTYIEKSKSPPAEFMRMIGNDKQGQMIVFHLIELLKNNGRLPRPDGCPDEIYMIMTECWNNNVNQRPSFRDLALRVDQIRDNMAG
T5 sequence (P29317 24-976): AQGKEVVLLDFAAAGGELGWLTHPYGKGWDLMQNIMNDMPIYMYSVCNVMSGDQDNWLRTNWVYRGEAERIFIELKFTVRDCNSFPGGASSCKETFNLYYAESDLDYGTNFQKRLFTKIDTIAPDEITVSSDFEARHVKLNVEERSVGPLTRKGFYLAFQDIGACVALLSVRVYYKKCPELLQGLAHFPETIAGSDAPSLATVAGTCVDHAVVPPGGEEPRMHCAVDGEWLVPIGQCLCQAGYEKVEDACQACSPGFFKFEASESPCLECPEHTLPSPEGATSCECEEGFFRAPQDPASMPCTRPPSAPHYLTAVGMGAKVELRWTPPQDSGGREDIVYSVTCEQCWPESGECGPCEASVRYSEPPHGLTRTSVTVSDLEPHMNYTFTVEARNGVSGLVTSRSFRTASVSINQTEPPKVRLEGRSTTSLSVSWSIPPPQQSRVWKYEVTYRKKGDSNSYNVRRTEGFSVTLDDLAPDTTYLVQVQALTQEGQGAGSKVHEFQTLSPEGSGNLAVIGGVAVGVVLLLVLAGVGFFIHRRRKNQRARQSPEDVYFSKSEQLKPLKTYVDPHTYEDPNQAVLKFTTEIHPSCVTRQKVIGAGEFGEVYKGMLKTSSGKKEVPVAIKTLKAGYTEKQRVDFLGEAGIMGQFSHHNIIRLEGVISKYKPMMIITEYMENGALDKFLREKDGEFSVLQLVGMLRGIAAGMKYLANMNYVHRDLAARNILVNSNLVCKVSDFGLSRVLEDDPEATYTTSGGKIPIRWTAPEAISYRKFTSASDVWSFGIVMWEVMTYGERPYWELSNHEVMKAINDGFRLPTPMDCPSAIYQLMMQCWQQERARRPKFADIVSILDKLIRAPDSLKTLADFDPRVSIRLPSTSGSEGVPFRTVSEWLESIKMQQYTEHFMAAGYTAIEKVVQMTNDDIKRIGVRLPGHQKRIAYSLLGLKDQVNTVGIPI
T12 sequence (Q5TCY1 whole entry): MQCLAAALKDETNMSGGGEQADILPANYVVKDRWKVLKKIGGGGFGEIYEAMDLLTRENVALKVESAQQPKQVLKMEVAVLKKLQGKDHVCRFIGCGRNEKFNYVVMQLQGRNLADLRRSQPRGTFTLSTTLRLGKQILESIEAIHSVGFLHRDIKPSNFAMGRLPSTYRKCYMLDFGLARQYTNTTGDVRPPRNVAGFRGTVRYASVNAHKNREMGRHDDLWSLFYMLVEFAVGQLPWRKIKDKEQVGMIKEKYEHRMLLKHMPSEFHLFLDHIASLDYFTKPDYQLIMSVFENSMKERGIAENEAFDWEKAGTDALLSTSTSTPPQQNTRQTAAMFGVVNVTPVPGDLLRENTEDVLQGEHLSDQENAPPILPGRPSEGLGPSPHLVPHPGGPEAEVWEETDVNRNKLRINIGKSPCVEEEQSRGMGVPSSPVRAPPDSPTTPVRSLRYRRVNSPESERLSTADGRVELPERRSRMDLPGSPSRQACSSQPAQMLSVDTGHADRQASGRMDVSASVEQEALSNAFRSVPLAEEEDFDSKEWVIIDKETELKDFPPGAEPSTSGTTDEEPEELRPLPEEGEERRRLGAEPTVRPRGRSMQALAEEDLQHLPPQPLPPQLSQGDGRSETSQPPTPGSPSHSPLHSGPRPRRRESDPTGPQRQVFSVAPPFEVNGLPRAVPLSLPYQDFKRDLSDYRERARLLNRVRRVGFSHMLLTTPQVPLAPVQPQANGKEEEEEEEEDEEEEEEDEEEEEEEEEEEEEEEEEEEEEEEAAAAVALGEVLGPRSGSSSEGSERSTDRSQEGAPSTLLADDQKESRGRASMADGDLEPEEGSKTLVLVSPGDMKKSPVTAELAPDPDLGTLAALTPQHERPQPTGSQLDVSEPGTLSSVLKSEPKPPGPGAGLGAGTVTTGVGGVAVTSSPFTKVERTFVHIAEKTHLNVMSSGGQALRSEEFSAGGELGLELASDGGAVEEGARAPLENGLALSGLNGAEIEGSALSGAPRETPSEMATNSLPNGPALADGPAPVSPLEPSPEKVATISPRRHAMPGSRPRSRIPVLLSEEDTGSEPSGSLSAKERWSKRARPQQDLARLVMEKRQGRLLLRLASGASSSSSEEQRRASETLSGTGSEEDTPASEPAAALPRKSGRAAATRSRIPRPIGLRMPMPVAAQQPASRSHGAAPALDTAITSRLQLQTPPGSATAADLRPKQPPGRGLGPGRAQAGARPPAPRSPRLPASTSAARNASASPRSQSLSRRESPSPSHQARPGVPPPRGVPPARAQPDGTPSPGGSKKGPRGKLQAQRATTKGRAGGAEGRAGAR
T3 sequence (Q06187 whole entry): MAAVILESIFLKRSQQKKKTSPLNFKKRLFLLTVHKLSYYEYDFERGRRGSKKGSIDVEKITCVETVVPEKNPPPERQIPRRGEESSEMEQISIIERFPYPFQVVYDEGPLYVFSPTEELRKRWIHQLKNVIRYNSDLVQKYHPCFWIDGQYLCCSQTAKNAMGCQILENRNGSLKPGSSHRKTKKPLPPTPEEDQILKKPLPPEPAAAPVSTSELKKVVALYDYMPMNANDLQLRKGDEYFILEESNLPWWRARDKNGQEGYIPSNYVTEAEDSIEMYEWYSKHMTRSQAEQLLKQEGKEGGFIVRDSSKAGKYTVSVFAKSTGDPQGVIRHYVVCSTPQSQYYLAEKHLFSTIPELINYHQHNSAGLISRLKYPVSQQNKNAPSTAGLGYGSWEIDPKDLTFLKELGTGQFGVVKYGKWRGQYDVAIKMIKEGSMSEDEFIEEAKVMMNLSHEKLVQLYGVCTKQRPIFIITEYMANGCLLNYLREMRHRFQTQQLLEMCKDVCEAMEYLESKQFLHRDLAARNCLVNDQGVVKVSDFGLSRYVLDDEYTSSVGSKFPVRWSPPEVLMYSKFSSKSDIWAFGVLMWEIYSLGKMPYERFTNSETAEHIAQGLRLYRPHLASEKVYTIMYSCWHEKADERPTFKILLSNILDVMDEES

As for `Oc1ncnc2c1c(-c1ccccc1)cn2-c1ccccc1` [F1386-0303, 5,7-diphenyl-7H-pyrrolo[2,3-d]pyrimidin-4-ol], the remaining activity at 1 µM was 111% at Aurora A; 84% at BRSK1; 130% on BTK; 93% at DYRK2; 97% at EPH-A2; 87% at HIPK2. Moreover, the remaining activity at 1 µM is 94% at JAK2; 105% at PAK5; 84% on PIM2; 70% on PKCa; 89% at TRKA; 102% on TTBK1. Besides, the remaining activity at 1 µM at p38g MAPK worked out at 109%.

On to `O=C1Cc2c([nH]c3ccc(Br)cc23)-c2ccccc2N1` [Kenpaullone], for which the remaining activity at 1 µM on Aurora A turned out to be 96%; on BRSK1 it was 55%; on BTK, 64%; on DYRK2, 91%; on EPH-A2, 103%; on HIPK2, 103%. The remaining activity at 1 µM at JAK2 came out at 105%; on PAK5, 12%; at PIM2, 67%; at PKCa, 94%; at TTBK1, 88%; on p38g MAPK, 100%.

For `COCCOc1ccc(-c2cn(-c3ccccc3)c3nc[nH]c(=O)c23)cc1` [DMX-5804, 5-[4-(2-methoxy-ethoxy)-phenyl]-7-phenyl-3,7-dihydro-pyrrolo[2,3-d]pyrimidin-4-one], the remaining activity at 1 µM at Aurora A turned out to be 72%; on BRSK1, 97%; on BTK it was 118%; on DYRK2, 115%; at EPH-A2, 94%; at HIPK2, 102%. The remaining activity at 1 µM came out at 70% on JAK2; 105% on PAK5; 105% at PIM2; 116% at PKCa; 74% on TRKA; 113% at TTBK1. For the same molecule, the remaining activity at 1 µM at p38g MAPK is 117%.

Regarding `O=C1Nc2ccc(I)cc2/C1=C/c1cc(Br)c(O)c(Br)c1` [GW5074], the remaining activity at 1 µM on Aurora A was determined as 79%; on BRSK1, 68%; at BTK, 75%; at DYRK2 it was 13%; on EPH-A2 it was 63%; on HIPK2 it was 134%. For the same molecule, the remaining activity at 1 µM at JAK2 is 82%; at PAK5 it was 77%; at PIM2, 10%; on PKCa, 85%; at TRKA, 51%; at TTBK1 it was 62%. In addition, the remaining activity at 1 µM at p38g MAPK is 114%.

Consider `Nc1ncc(C(=O)NC2CN(C(=O)C3CC3)C2)c2ccc(-c3cccc(F)c3)nc12` [GNE-495], for which the residual activity – broadly, the signal under treatment as a percentage of the control signal – on Aurora A (1 μM) is recorded as 73%; on BRSK1 (1 μM), 71%; on BTK (1 μM), 82%; at DYRK2 (1 μM), 55%; at EPH-A2 (1 μM) it was 112%; at HIPK2 (1 μM), 96%. For the same molecule, the residual activity at JAK2 (1 μM) amounted to 76%; at PAK5 (1 μM), 55%; at PIM2 (1 μM) it was 95%; at PKCa (1 μM), 50%; at TRKA (1 μM) it was 68%; at TTBK1 (1 μM), 97%. At p38g MAPK (1 μM), the residual activity is 93%.
